Experimental data: patent publication US20250248970A1, “NOVEL SUBSTITUTED FLUORINATED N-PROPYL-PYRROLIDINE COMPOUNDS, PROCESSES FOR THEIR PREPARATION AND THERAPEUTIC USES THEREOF” (SANOFI, priority 2022, published 2025)

How the values were obtained:
[1] = tested on: CYP3A4; experiment: CYP3A4 induction potential for ADME profile evaluation (CYP3A4 mRNA by RT-PCR in primary human hepatocytes); type: in vitro ADME; settings: approximately 48 hours, 0.3-10 μM, relative to 10 μM rifampicin
Protocol: Such test is based, for example, on the quantification of CYP3A4 mRNA induction performed by RT-PCR analysis. Said % Emax may be calculated as detailed in the illustrative part under the following formula:
[formula] • ECompound: relative fold mRNA expression following treatment with test compound, • EPositive control: relative fold mRNA expression following reference inducer i.e., 10 μM rifampicin, • EVehicle control: relative fold mRNA expression following vehicle treatment i.e., 0.1% DMSO, and • E is the efficiency of the quantitative PCR.
Said test evaluates the potential induction effect of the tested compounds on CYP3A4 gene expression in primary cultures of human hepatocytes from one or two donors with established concentration-dependent response to the reference inducer, rifampicin.
Before seeding, cell viability was estimated using the Trypan blue dye exclusion test. Hepatocytes were seeded on collagen I-coated 96-well plates at a density of 70 000 cells/well in 100 μL of plating medium for at least 4 hours under a humidified atmosphere of CO2/air (5%/95%), at 37° C. After the cell attachment period, the plating medium was removed, and the hepatocytes were treated daily for 2 consecutive days (approximately 48 hours), with 100 μL per well of fresh culture medium containing either the vehicle control (0.1% DMSO) or the investigated compounds at four concentrations 0.3, 1, 3 and 10 μM, or rifampicin, the reference inducer at 10 μM. All incubations were performed in duplicates.
Ten mM stock solutions of the different compounds were diluted to obtain 0.3, 1 and 3 mM daughter solutions. The day of the experiment, stock solutions were diluted 1000-fold in the incubation/culture medium to achieve final concentrations of 0.3, 1, 3 and 10 μM.
After the 48-hour incubation period with the test compounds, the cell culture medium was removed, and the cells were lysed to release the RNA for CYP3A4 gene expression assessment. Quantification of CYP3A4 mRNA induction was performed by RT-PCR analysis.
Total RNA was extracted from hepatocytes using the King Fisher™ Flex Purification System with the MagMAX mirVana Total RNA Isolation kit (Thermo Fisher Scientific, USA). RNA was quantified by fluorimetry using the Quantifluor RNA System (Promega, USA) and cDNAs were synthesized from […] total RNA using the iScript Reverse Transcription Supermix for RT-qPCR from Biorad (France) at 42° C. for 30 min. cDNA samples were then diluted in water (1:5) and 5 μL of each sample was used for real-time PCR amplification by using the SYBR Green kit from Biorad (France). The following program was used: a denaturation step at 95° C. for 30 sec, and 40 cycles of PCR (denaturation, 95° C., 10 sec and annealing and extension, 58° C., 1 min). In all cases, the quality of the PCR product was assessed by monitoring a fusion step at the end of the run. Human forward and reverse primer sequences used were: 5′-CCT-GGC-ACC-CAG-CAC-AAT-3′ and 5′-GGG-CCG GAC-TCG-TCA-TAC-3′ for actin, 5′-CAC-AAA-CG-GAG-GCC-TTT-TG-3′ and 5′-ATC-CAT-GCT-GTA-GGC-CCC-AA-3′ for CYP3A4.
Cq (quantification cycle) values were determined using a multi-variable, non-linear regression model to individual well traces and then using this model an optimal Cq value was computed. Cq values are inversely proportional to the amount of target nucleic acid in the sample (i.e., lowest Cq level corresponds to the greatest amount of target nucleic acid in the sample). Cq of reference gene (in this study human actin) was also used as positive control of quantitative PCR.
The extent of induction or % of Emax, resulting from treatment with test compounds was calculated under the following formula: […]

[2] = biological target: T1, ERα (Homo sapiens, UniProt P03372); experiment: Estrogen receptor degradation activity (breast cancer cell ERα in cell western assay); type: cell-based; settings: MCF7 cells; for % Degradation At 0.3 μM: 4 hours, % of ERα levels decrease relative to fulvestrant
T1 construct: host or cells: MCF7
T1 sequence (P03372 1-595): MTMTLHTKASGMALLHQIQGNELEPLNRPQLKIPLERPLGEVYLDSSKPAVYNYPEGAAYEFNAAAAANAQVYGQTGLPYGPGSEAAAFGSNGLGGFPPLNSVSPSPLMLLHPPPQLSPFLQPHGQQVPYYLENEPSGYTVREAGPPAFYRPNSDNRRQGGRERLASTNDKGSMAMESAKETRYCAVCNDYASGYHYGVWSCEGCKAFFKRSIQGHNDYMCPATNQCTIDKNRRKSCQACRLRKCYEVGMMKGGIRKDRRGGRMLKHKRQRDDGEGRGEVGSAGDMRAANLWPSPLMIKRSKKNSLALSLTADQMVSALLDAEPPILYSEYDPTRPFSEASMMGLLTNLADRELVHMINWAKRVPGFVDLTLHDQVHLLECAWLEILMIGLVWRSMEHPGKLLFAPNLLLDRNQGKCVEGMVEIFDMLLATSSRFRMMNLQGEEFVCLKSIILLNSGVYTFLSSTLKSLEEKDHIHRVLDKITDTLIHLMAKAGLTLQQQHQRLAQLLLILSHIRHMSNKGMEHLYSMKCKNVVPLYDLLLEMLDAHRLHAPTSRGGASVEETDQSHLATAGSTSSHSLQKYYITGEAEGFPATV
Protocol: Said test involves measuring the in vitro degradation activity of the compounds of the Table 1a.
The measurements of the degradation activities were made using a breast cancer cell ERα in cell western assay as described hereunder.
MCF7 cells (ATCC) were seeded in 384 wells microplate (collagen coated) at a concentration of 10000 cells/30 μL per well in red phenol free MEM alpha medium (invitrogen) containing 5% charcoal dextran striped FBS. The following day, 9 points serial 1:5 dilution of each compound was added to the cells in 2.5p L at final concentrations ranging from 0.3-0.0000018 μM (in table 2), or 0.1 μM for fulvestrant (using as positive control). At 4 hours post compound addition the cells were fixed by adding 25 μL of formalin (final concentration 5% formalin containing 0.1% triton) for 10 minutes at room temperature and then washed twice with PBS. Then, 50 μL of LI-COR blocking buffer containing 0.1% Triton was added to plate for 30 minutes at room temperature. LI-COR blocking buffer was removed and cells were incubated overnight at cold room with 50 μL anti-ER rabbit monoclonal antibody (Thermo scientific MA1-39540) diluted at 1:1000 in LI-COR blocking buffer containing 0.1% tween-20. Wells which were treated with blocking buffer but no antibody were used as background control. Wells were washed twice with PBS (0.1% tween-20) and incubated at 37° C. for 60 minutes in LI-COR (0.1% tween-20) containing goat anti-rabbit antibody Alexa 488 (1:1000) and Syto-64 a DNA dye (2 μM final concentration). Cells were then washed 3 times in PBS and scanned in ACUMEN explorer (TTP-Labtech). Integrated intensities in the green fluorescence and red fluorescence were measured to determine the levels of ERα and DNA respectively.
The degradation activity with respect to estrogen receptors in this test is given by the concentration which degrades 50% of the estrogen receptor (or IC50) in nM.
The % of ERα levels decrease were determined as follows: % inhibition=100*(1−(sample−fulvestrant: DMSO−fulvestrant)).

| CYP3A4 induction Emax (%) [1] | % Degradation At 0.3 μM [2] | degradation activity on estrogen receptors (in words) ([2]; tested at 0.3 μM) | Compound |
| --- | --- | --- | --- |
| 42% | 87% | – | Cl.O=C(O)c1ccc2c(c1)CCCC(c1cccc(F)c1Cl)=C2c1ccc(CC2CCN(CCCF)C2)cc1 (single isomer, unassigned; isomer 1) [Compound 21, 8-(2-chloro-3-fluorophenyl)-9-(4-((1-(3-fluoropropyl)pyrrolidin-3-yl)methyl)phenyl)-6,7-dihydro-5H-benzo[7]annulene-3-carboxylic acid hydrochloride, Isomer 1] |
| 85% | 89% | significant degradation activity | O=C(O)c1ccc2c(c1)CCCC(c1ccc(Cl)cc1Cl)=C2c1ccc(N[C@H]2CCN(CCCF)C2)cc1 [Compound C2, (S)-8-(2,4-Dichlorophenyl)-9-(4-((1-(3-fluoropropyl)pyrrolidin-3-yl)amino)phenyl)-6,7-dihydro-5H-benzo[7]annulene-3-carboxylic acid, reference compound] |
| 34% | 90% | – | Cc1c(C2=C(c3ccc(CC4CCN(CCCF)C4)cc3)c3ccc(C(=O)O)cc3CCC2)cccc1C(F)(F)F.Cl (single isomer, unassigned; isomer 1) [Compound 12, 9-(4-((1-(3-fluoropropyl)pyrrolidin-3-yl)methyl)phenyl)-8-(2-methyl-3-(trifluoromethyl)phenyl)-6,7-dihydro-5H-benzo[7]annulene-3-carboxylic acid hydrochloride, Isomer 1] |
| 15% | 85% | – | Cc1cccc(C2=C(c3ccc(CC4CCN(CCCF)C4)cc3)c3ccc(C(=O)O)cc3CCC2)c1C(F)(F)F (single isomer, unassigned; isomer 1) [Compound 30, 9-(4-((1-(3-fluoropropyl)pyrrolidin-3-yl)methyl)phenyl)-8-(3-methyl-2-(trifluoromethyl)phenyl)-6,7-dihydro-5H-benzo[7]annulene-3-carboxylic acid, Isomer 1] |
| 11% | 90% | – | CC1(C)CC=C(C2=C(c3ccc(CC4CCN(CCCF)C4)cc3)c3ccc(C(=O)O)cc3CCC2)CC1.Cl (single isomer, unassigned; isomer 1) [Compound 11, 8-(4,4-dimethylcyclohex-1-en-1-yl)-9-(4-((1-(3-fluoropropyl)pyrrolidin-3-yl)methyl)phenyl)-6,7-dihydro-5H-benzo[7]annulene-3-carboxylic acid hydrochloride, Isomer 1] |
| 22% | 88% | – | O=C(O)c1ccc2c(c1)CCCC(c1cccc(Cl)c1F)=C2c1ccc(CC2CCN(CCCF)C2)cc1 (single isomer, unassigned; isomer 1) [Compound 16, 8-(3-chloro-2-fluorophenyl)-9-(4-((1-(3-fluoropropyl)pyrrolidin-3-yl)methyl)phenyl)-6,7-dihydro-5H-benzo[7]annulene-3-carboxylic acid, Isomer 1] |

More lines, now with the values behind:

| Compound | CYP3A4 induction Emax (%) [1] | % Degradation At 0.3 μM [2] | degradation activity on estrogen receptors (in words) ([2]; tested at 0.3 μM) |
| --- | --- | --- | --- |
| O=C(O)c1ccc2c(c1)CCCC(c1ccc(Cl)cc1Cl)=C2c1ccc(O[C@H]2CCN(CCCF)C2)cc1 [(C1), reference compound] | 93% | – | – |
| Cc1c(Cl)cccc1C1=C(c2ccc(CC3CCN(CCC(F)F)C3)cc2)c2ccc(C(=O)O)cc2CCC1.Cl (single isomer, unassigned; isomer 1) [Compound 6, 8-(3-chloro-2-methylphenyl)-9-(4-((1-(3,3-difluoropropyl)pyrrolidin-3-yl)methyl)phenyl)-6,7-dihydro-5H-benzo[7]annulene-3-carboxylic acid hydrochloride, Isomer 1] | 8% | 81% | – |
| Cl.O=C(O)c1ccc2c(c1)CCCC(c1ccc(F)cc1Cl)=C2c1ccc(CC2CCN(CCCF)C2)cc1 (single isomer, unassigned; isomer 1) [Compound 2, 8-(2-chloro-4-fluorophenyl)-9-(4-((1-(3-fluoropropyl)pyrrolidin-3-yl)methyl)phenyl)-6,7-dihydro-5H-benzo[7]annulene-3-carboxylic acid hydrochloride, Isomer 1] | 23% | 74% | – |
| CC1(C)CCC(C2=C(c3ccc(CC4CCN(CCCF)C4)cc3)c3ccc(C(=O)O)cc3CCC2)CC1.Cl (single isomer, unassigned; isomer 1) [Compound 3, 8-(4,4-dimethylcyclohexyl)-9-(4-((1-(3-fluoropropyl)pyrrolidin-3-yl)methyl)phenyl)-6,7-dihydro-5H-benzo[7]annulene-3-carboxylic acid, Isomer 1] | 8% | 85% | – |
| Cc1cc(F)ccc1C1=C(c2ccc(CC3CCN(CCC(F)F)C3)cc2)c2ccc(C(=O)O)cc2CCC1.Cl (single isomer, unassigned; isomer 1) [Compound 4, 9-(4-((1-(3,3-difluoropropyl)pyrrolidin-3-yl)methyl)phenyl)-8-(4-fluoro-2-methylphenyl)-6,7-dihydro-5H-benzo[7]annulene-3-carboxylic acid hydrochloride, Isomer 1] | 30% | 83% | – |
